Measured values as given in paper PMC10465233, “Lys-urea-Aad, Lys-urea-Cmc and Lys-urea-Cms as potential pharmacophores for the design of PSMA-targeted radioligands to reduce off-target uptake in kidneys and salivary glands” (Theranostics, 2023).
Where “and” joins values, the source holds several entries; their conditions need not be identical. Identical values can stand only once.

Assays:
PSMA = biological target: T1, PSMA (Homo sapiens, UniProt Q04609); test: In vitro competition binding assay, LNCaP cells, [^18F]DCFPyL as radioligand
T1 construct: host or cells: LNCaP prostate cancer cells
Method: The LNCaP cells obtained from ATCC (via Cedarlane, Burlington, Canada) were cultured in RPMI 1640 medium supplemented with 10% FBS, penicillin (100 U/mL) and streptomycin (100 μg/mL) at 37 °C in a Panasonic Healthcare (Tokyo, Japan) MCO-19AIC humidified incubator containing 5% CO2. The cells were confirmed pathogen free by the IMPACT Rodent Pathogen Test (IDEXX BioAnalytics). Cells grown to 80-90% confluence were then washed with sterile PBS and collected after trypsinization. The cell concentration was counted in triplicate using a hemocytometer and a manual laboratory counter.
In vitro competition binding assays were conducted as previously reported using LNCaP prostate cancer cells and [^18F]DCFPyL as the radioligand [10]-[12],[14]. Briefly, LNCaP cells (400,000/well) were plated onto a 24-well poly-D-lysine coated plate for 48 h. Growth media was removed and replaced with HEPES buffered saline (50 mM HEPES, pH 7.5, 0.9% sodium chloride) and the cells were incubated for 1 h at 37 °C. [^18F]DCFPyL (0.1 nM) was added to each well (in triplicate) containing various concentrations (0.5 mM - 0.05 nM) of tested ligands. Non-specific binding was determined in the presence of 10 µM non-radiolabeled DCFPyL. The assay mixtures were further incubated for 1 h at 37 °C with gentle agitation. Then, the buffer and hot ligand were removed, and cells were washed twice with cold HEPES buffered saline. To harvest the cells, 400 µL of 0.25% trypsin solution was added to each well. Radioactivity was measured on an automatic gamma counter. Nonlinear regression analyses and Ki calculations were performed using the GraphPad Prism 7 software.

LNCaP tumor-bearing mice [1] = test: Ex vivo biodistribution in LNCaP tumor-bearing mice; design: species or system mouse; settings: 1 h post-injection; for Reduction of average kidney uptake by co-injection of DCFPyL: DCFPyL 0.5 mg
Procedure, shortened: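 Male NSG or NRG mice bearing subcutaneous LNCaP tumours (5-8 mm) were injected with 2-4 MBq radioligand, with 0.5 mg nonradioactive DCFPyL co-injected for blocking. At set time points, blood and organs were collected, weighed and gamma-counted.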

LNCaP tumor-bearing mice [2] = test: PET/CT imaging in LNCaP tumor-bearing mice; format: in vivo, mouse; settings: 1 h post-injection
Method: Imaging, biodistribution and radioligand therapy experiments were performed following previously published procedures using male NOD-scid IL2Rg^null (NSG) or NOD.Cg-Rag1^tm1MomIl2rg^tm1Wjl/SzJ (NRG) mice [10]-[12],[14]-[15]. The experiments were conducted according to the guidelines established by the Canadian Council on Animal Care and approved by Animal Ethics Committee of the University of British Columbia. The mice were briefly sedated by inhalation of 2% isoflurane in oxygen, and implanted subcutaneously with 1×10^7 LNCaP cells behind the left shoulder. The mice were imaged or used in biodistribution studies when the tumor grew to 5-8 mm in diameter over a period of 4-5 weeks.
PET/CT imaging experiments were conducted using a Siemens (Knoxville, TN, USA) Inveon micro PET/CT scanner. Each tumor-bearing mouse was injected with ~6-8 MBq of ^68Ga-labeled tracer through a lateral caudal tail vein. After 50 min post-injection, a 10-min CT scan was conducted first for localization and attenuation correction after segmentation for reconstructing the PET images, followed by a 10-min static PET imaging acquisition.

22Rv1 tumor model = test system: 22Rv1 tumor model; design: method as in PMID 34453203; settings: 1 h post-injection, 22Rv1, BALB/c nude; cited from earlier work
[3] = blocked, co-injected with DCFPyL (0.5 mg)

T1 sequence (Q04609 whole entry): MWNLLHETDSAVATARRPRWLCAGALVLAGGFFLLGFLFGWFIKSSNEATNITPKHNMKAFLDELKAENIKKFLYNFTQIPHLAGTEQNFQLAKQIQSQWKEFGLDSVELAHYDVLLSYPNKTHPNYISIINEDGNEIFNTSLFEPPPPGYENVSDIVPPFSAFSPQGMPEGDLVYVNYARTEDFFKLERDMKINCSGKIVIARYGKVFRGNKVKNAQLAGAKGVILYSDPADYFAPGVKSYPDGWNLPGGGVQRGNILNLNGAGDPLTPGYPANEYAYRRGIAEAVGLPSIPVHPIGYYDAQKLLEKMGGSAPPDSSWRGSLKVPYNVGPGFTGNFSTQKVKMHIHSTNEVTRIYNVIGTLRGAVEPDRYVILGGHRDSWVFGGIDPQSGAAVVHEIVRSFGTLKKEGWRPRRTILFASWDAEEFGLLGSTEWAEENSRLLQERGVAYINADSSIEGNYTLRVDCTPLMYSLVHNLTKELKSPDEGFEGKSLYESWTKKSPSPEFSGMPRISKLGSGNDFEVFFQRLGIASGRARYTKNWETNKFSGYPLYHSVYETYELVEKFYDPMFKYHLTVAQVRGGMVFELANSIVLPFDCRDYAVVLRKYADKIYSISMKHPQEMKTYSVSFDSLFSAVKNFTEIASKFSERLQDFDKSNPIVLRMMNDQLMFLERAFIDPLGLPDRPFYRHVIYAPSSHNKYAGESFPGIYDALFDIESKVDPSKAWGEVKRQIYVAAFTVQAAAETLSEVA

COc1ccc(CCCC(=O)NCC(=O)N[C@@H](CCCCNC(=O)CN2CCN(CC(=O)[O-])CCN(CC(=O)[O-])CCN(CC(=O)[O-])CC2)C(=O)NC[C@H]2CC[C@H](C(=O)N[C@@H](Cc3c4ccccc4cc4ccccc34)C(=O)NCCCC[C@H](NC(=O)N[C@@H](COCC(=O)O)C(=O)O)C(=O)O)CC2)cc1.[Lu+3] [Lu-HTK04028]
Ki (PSMA): 13.9 ± 3.2 nM

COc1ccc(CCCC(=O)NCC(=O)N[C@@H](CCCCNC(=O)CN2CCN(CC(=O)[O-])CCN(CC(=O)[O-])CCN(CC(=O)[O-])CC2)C(=O)NC[C@H]2CC[C@H](C(=O)N[C@@H](Cc3c4ccccc4cc4ccccc34)C(=O)NCCCC[C@H](NC(=O)N[C@@H](CSCC(=O)O)C(=O)O)C(=O)O)CC2)cc1.[Lu+3] [Lu-HTK04048]
Ki (PSMA): 1.4 ± 1 nM

O=C([O-])CN1CCN(CC(=O)[O-])CCN(CC(=O)NCC2CCC(C(=O)NC(Cc3c4ccccc4cc4ccccc34)C(=O)NCCCCC(NC(=O)NC(CSCC(=O)O)C(=O)O)C(=O)O)CC2)CCN(CC(=O)[O-])CC1.[68Ga+3] (stereo not shown) [[^68Ga]Ga-HTK03177]
Adrenal glands uptake (LNCaP tumor-bearing mice [1]): 0.46 ± 0.17 %ID/g
Blood uptake (LNCaP tumor-bearing mice [1]): 0.70 ± 0.06 %ID/g
Blood:Salivary gland uptake ratio (LNCaP tumor-bearing mice [1]): 3.14 ± 0.19
Bone uptake (LNCaP tumor-bearing mice [1]): 0.10 ± 0.03 %ID/g
Brain uptake (LNCaP tumor-bearing mice [1]): 0.02 ± 0.00 %ID/g
Fat uptake (LNCaP tumor-bearing mice [1]): 0.09 ± 0.04 %ID/g
Heart uptake (LNCaP tumor-bearing mice [1]): 0.21 ± 0.01 %ID/g
Intestines uptake (LNCaP tumor-bearing mice [1]): 0.21 ± 0.02 %ID/g
Kidneys uptake (LNCaP tumor-bearing mice [1]): 7.76±1.00 %ID/g and < 8.0 %ID/g
Lacrimal glands uptake (LNCaP tumor-bearing mice [1]): 0.12 ± 0.06 %ID/g
Liver uptake (LNCaP tumor-bearing mice [1]): 0.33 ± 0.20 %ID/g
Lungs uptake (LNCaP tumor-bearing mice [1]): 0.61 ± 0.08 %ID/g
Muscle uptake (LNCaP tumor-bearing mice [1]): 0.10 ± 0.01 %ID/g
Pancreas uptake (LNCaP tumor-bearing mice [1]): 0.14 ± 0.01 %ID/g
Salivary glands uptake (LNCaP tumor-bearing mice [1]): 0.22±0.02 %ID/g and < 0.25 %ID/g
Spleen uptake (LNCaP tumor-bearing mice [1]): 0.42 ± 0.15 %ID/g
Stomach uptake (LNCaP tumor-bearing mice [1]): 0.15 ± 0.09 %ID/g
Testes uptake (LNCaP tumor-bearing mice [1]): 0.25 ± 0.07 %ID/g
Thyroid uptake (LNCaP tumor-bearing mice [1]): 0.23 ± 0.01 %ID/g
Tumor uptake (LNCaP tumor-bearing mice [1]): 24.7±6.85 %ID/g and 21-25 %ID/g
Tumor:Blood uptake ratio (LNCaP tumor-bearing mice [1]): 36.1±12.5
Tumor:Kidney uptake ratio (LNCaP tumor-bearing mice [1]): 3.25±1.16
Tumor:Muscle uptake ratio (LNCaP tumor-bearing mice [1]): 265±103
Tumor:Salivary gland uptake ratio (LNCaP tumor-bearing mice [1]): 112±33.1
Adrenal glands uptake (LNCaP tumor-bearing mice [1]; [3]): 0.61 ± 0.38 %ID/g
Blood uptake (LNCaP tumor-bearing mice [1]; [3]): 0.85 ± 0.15 %ID/g
Blood:Salivary gland uptake ratio (LNCaP tumor-bearing mice [1]; [3]): 6.07 ± 2.53
Bone uptake (LNCaP tumor-bearing mice [1]; [3]): 0.24 ± 0.17 %ID/g
Brain uptake (LNCaP tumor-bearing mice [1]; [3]): 0.02 ± 0.00 %ID/g
Fat uptake (LNCaP tumor-bearing mice [1]; [3]): 0.20 ± 0.16 %ID/g
Heart uptake (LNCaP tumor-bearing mice [1]; [3]): 0.23 ± 0.04 %ID/g
Intestines uptake (LNCaP tumor-bearing mice [1]; [3]): 0.69 ± 0.76 %ID/g
Kidneys uptake (LNCaP tumor-bearing mice [1]; [3]): 1.73 ± 0.36 %ID/g
Lacrimal glands uptake (LNCaP tumor-bearing mice [1]; [3]): 0.15 ± 0.10 %ID/g
Liver uptake (LNCaP tumor-bearing mice [1]; [3]): 0.37 ± 0.22 %ID/g
Lungs uptake (LNCaP tumor-bearing mice [1]; [3]): 0.54 ± 0.06 %ID/g
Muscle uptake (LNCaP tumor-bearing mice [1]; [3]): 0.13 ± 0.05 %ID/g
Pancreas uptake (LNCaP tumor-bearing mice [1]; [3]): 0.54 ± 0.54 %ID/g
Salivary glands uptake (LNCaP tumor-bearing mice [1]; [3]): 0.15 ± 0.04 %ID/g
Spleen uptake (LNCaP tumor-bearing mice [1]; [3]): 0.25 ± 0.18 %ID/g
Stomach uptake (LNCaP tumor-bearing mice [1]; [3]): 0.12 ± 0.05 %ID/g
Testes uptake (LNCaP tumor-bearing mice [1]; [3]): 0.36 ± 0.14 %ID/g
Thyroid uptake (LNCaP tumor-bearing mice [1]; [3]): 0.21 ± 0.06 %ID/g
Tumor uptake (LNCaP tumor-bearing mice [1]; [3]): 0.74 ± 0.12 %ID/g
Tumor:Blood uptake ratio (LNCaP tumor-bearing mice [1]; [3]): 0.89 ± 0.19
Tumor:Kidney uptake ratio (LNCaP tumor-bearing mice [1]; [3]): 0.43 ± 0.05
Tumor:Muscle uptake ratio (LNCaP tumor-bearing mice [1]; [3]): 5.50 ± 2.68
Tumor:Salivary gland uptake ratio (LNCaP tumor-bearing mice [1]; [3]): 5.05 ± 0.77
Reduction of average kidney uptake by co-injection of DCFPyL (LNCaP tumor-bearing mice [1]): 78%
Kidney uptake in PET images (LNCaP tumor-bearing mice [2]): moderate

O=C([O-])CN1CCN(CC(=O)[O-])CCN(CC(=O)NCC2CCC(C(=O)NC(Cc3c4ccccc4cc4ccccc34)C(=O)NCCCCC(NC(=O)NC(COCC(=O)O)C(=O)O)C(=O)O)CC2)CCN(CC(=O)[O-])CC1.[68Ga+3] (stereo not shown) [[^68Ga]Ga-HTK03187]
Adrenal glands uptake (LNCaP tumor-bearing mice [1]): 0.26 ± 0.06 %ID/g
Blood uptake (LNCaP tumor-bearing mice [1]): 0.67 ± 0.10 %ID/g
Blood:Salivary gland uptake ratio (LNCaP tumor-bearing mice [1]): 4.27 ± 0.74
Bone uptake (LNCaP tumor-bearing mice [1]): 0.13 ± 0.03 %ID/g
Brain uptake (LNCaP tumor-bearing mice [1]): 0.02 ± 0.00 %ID/g
Fat uptake (LNCaP tumor-bearing mice [1]): 0.07 ± 0.02 %ID/g
Heart uptake (LNCaP tumor-bearing mice [1]): 0.19 ± 0.04 %ID/g
Intestines uptake (LNCaP tumor-bearing mice [1]): 0.23 ± 0.05 %ID/g
Lacrimal glands uptake (LNCaP tumor-bearing mice [1]): 0.09 ± 0.03 %ID/g
Liver uptake (LNCaP tumor-bearing mice [1]): 0.21 ± 0.05 %ID/g
Lungs uptake (LNCaP tumor-bearing mice [1]): 0.52 ± 0.09 %ID/g
Muscle uptake (LNCaP tumor-bearing mice [1]): 0.09 ± 0.01 %ID/g
Pancreas uptake (LNCaP tumor-bearing mice [1]): 0.12 ± 0.02 %ID/g
Salivary glands uptake (LNCaP tumor-bearing mice [1]): 0.16±0.02 %ID/g and < 0.25 %ID/g
Spleen uptake (LNCaP tumor-bearing mice [1]): 0.17 ± 0.02 %ID/g
Stomach uptake (LNCaP tumor-bearing mice [1]): 0.08 ± 0.05 %ID/g
Testes uptake (LNCaP tumor-bearing mice [1]): 0.15 ± 0.03 %ID/g
Thyroid uptake (LNCaP tumor-bearing mice [1]): 0.18 ± 0.02 %ID/g
Tumor uptake (LNCaP tumor-bearing mice [1]): 21.1±3.62 %ID/g and 21-25 %ID/g
Tumor:Blood uptake ratio (LNCaP tumor-bearing mice [1]): 32.2±8.53
Tumor:Kidney uptake ratio (LNCaP tumor-bearing mice [1]): 7.67±2.10
Tumor:Muscle uptake ratio (LNCaP tumor-bearing mice [1]): 249±61.2
Tumor:Salivary gland uptake ratio (LNCaP tumor-bearing mice [1]): 133±14.0
Adrenal glands uptake (LNCaP tumor-bearing mice [1]; [3]): 0.13 ± 0.06 %ID/g
Blood uptake (LNCaP tumor-bearing mice [1]; [3]): 0.33 ± 0.16 %ID/g
Blood:Salivary gland uptake ratio (LNCaP tumor-bearing mice [1]; [3]): 3.64 ± 0.44
Bone uptake (LNCaP tumor-bearing mice [1]; [3]): 0.06 ± 0.02 %ID/g
Brain uptake (LNCaP tumor-bearing mice [1]; [3]): 0.01 ± 0.00 %ID/g
Fat uptake (LNCaP tumor-bearing mice [1]; [3]): 0.06 ± 0.04 %ID/g
Heart uptake (LNCaP tumor-bearing mice [1]; [3]): 0.10 ± 0.05 %ID/g
Intestines uptake (LNCaP tumor-bearing mice [1]; [3]): 0.13 ± 0.03 %ID/g
Kidneys uptake (LNCaP tumor-bearing mice [1]; [3]): 1.15 ± 0.37 %ID/g
Lacrimal glands uptake (LNCaP tumor-bearing mice [1]; [3]): 0.06 ± 0.03 %ID/g
Liver uptake (LNCaP tumor-bearing mice [1]; [3]): 0.16 ± 0.05 %ID/g
Lungs uptake (LNCaP tumor-bearing mice [1]; [3]): 0.31 ± 0.10 %ID/g
Muscle uptake (LNCaP tumor-bearing mice [1]; [3]): 0.08 ± 0.06 %ID/g
Pancreas uptake (LNCaP tumor-bearing mice [1]; [3]): 0.07 ± 0.02 %ID/g
Salivary glands uptake (LNCaP tumor-bearing mice [1]; [3]): 0.09 ± 0.04 %ID/g
Spleen uptake (LNCaP tumor-bearing mice [1]; [3]): 0.12 ± 0.03 %ID/g
Stomach uptake (LNCaP tumor-bearing mice [1]; [3]): 0.03 ± 0.01 %ID/g
Testes uptake (LNCaP tumor-bearing mice [1]; [3]): 0.15 ± 0.01 %ID/g
Thyroid uptake (LNCaP tumor-bearing mice [1]; [3]): 0.12 ± 0.05 %ID/g
Tumor uptake (LNCaP tumor-bearing mice [1]; [3]): 0.35 ± 0.09 %ID/g
Tumor:Blood uptake ratio (LNCaP tumor-bearing mice [1]; [3]): 1.14 ± 0.25
Tumor:Kidney uptake ratio (LNCaP tumor-bearing mice [1]; [3]): 0.31 ± 0.08
Tumor:Muscle uptake ratio (LNCaP tumor-bearing mice [1]; [3]): 5.34 ± 2.25
Tumor:Salivary gland uptake ratio (LNCaP tumor-bearing mice [1]; [3]): 4.13 ± 0.92
Tumor uptake (LNCaP tumor-bearing mice [1]; listed as [^68Ga]HTK03187): ~ 20 %ID/g
Reduction of average kidney uptake by co-injection of DCFPyL (LNCaP tumor-bearing mice [1]): 59%
Kidney uptake in PET images (LNCaP tumor-bearing mice [2]): relatively lower

O=C([O-])CN1CCN(CC(=O)[O-])CCN(CC(=O)NCC2CCC(C(=O)NC(Cc3ccc4ccccc4c3)C(=O)NCCCCC(NC(=O)NC(CCC(=O)O)C(=O)O)C(=O)O)CC2)CCN(CC(=O)[O-])CC1.[68Ga+3] (stereo not shown) [[^68Ga]Ga-PSMA-617]
Tumor uptake (22Rv1 tumor model): 3.41±1.31 %ID/g
